Laboratory results taken from ChEMBL document CHEMBL1157123, “First identification of xanthone sulfonamides as potent acyl-CoA:cholesterol acyltransferase (ACAT) inhibitors” (Bioorg Med Chem Lett, 2010).
Calls of active or inactive are those of the source. The calls are words filed in the database; no cut-off is given here.

Biological target: T1, Sterol O-acyltransferase 1 (Homo sapiens) (UniProt P35610)
T1 sequence (whole entry): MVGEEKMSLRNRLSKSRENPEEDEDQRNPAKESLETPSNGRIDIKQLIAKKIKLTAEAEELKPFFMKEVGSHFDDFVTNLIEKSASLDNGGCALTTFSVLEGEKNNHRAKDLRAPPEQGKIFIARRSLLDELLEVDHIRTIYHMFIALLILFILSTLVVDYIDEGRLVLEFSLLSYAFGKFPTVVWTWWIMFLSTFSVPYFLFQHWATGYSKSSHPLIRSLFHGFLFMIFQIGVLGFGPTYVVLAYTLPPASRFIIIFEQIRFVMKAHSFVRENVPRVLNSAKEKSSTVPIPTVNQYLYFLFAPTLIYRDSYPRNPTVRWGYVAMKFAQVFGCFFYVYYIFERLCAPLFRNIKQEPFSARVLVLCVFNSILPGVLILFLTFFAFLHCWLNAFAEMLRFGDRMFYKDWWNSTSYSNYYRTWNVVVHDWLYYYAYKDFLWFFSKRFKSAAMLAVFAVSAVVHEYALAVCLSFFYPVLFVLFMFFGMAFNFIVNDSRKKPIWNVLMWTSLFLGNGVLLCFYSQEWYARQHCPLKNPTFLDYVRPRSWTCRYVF
Assay: Inhibition of ACAT at 10 ug/ml

Row | SMILES | inhibition
1 | COc1ccc(CCCN(C)S(=O)(=O)c2c(OC)cc(OC)c3c(=O)c4cc(OC)c(OC)cc4oc23)cc1OC | 30.1%
2 | COc1cc2oc3c(S(=O)(=O)N4CCN(c5ccccn5)CC4)c(OC)cc(OC)c3c(=O)c2cc1OC | 43.6%
3 | COC(=O)CNS(=O)(=O)c1c(OC)cc(OC)c2c(=O)c3cc(OC)c(OC)cc3oc12 | 5.13%
4 | COc1cc2oc3c(S(=O)(=O)N4CCC(N(C)C)C4)c(OC)cc(OC)c3c(=O)c2cc1OC (centres undefined) | 21%
5 | COc1cc2oc3c(S(=O)(=O)NCC(C)c4ccccc4)c(OC)cc(OC)c3c(=O)c2cc1OC (centres undefined) | 10.8%
6 | COc1cc2oc3c(S(=O)(=O)NCCc4ccc(C)c(C)c4)c(OC)cc(OC)c3c(=O)c2cc1OC | 11.9%
7 | COc1cc2oc3c(S(=O)(=O)NC4CC4)c(OC)cc(OC)c3c(=O)c2cc1OC | inactive
8 | COc1cc2oc3c(S(=O)(=O)NC(c4ccccc4)c4ccccc4)c(OC)cc(OC)c3c(=O)c2cc1OC | inactive
9 | CCCNS(=O)(=O)c1c(OC)cc(OC)c2c(=O)c3cc(OC)c(OC)cc3oc12 | inactive
10 | COc1cc2oc3c(S(=O)(=O)N4CCN(C)CC4)c(OC)cc(OC)c3c(=O)c2cc1OC | 14.5%
11 | COc1cc2oc3c(S(=O)(=O)N4CCN(c5cccc(C)c5)CC4)c(OC)cc(OC)c3c(=O)c2cc1OC | 64.8%
12 | CCN(CC)C(=O)C1CCCN(S(=O)(=O)c2c(OC)cc(OC)c3c(=O)c4cc(OC)c(OC)cc4oc23)C1 (centres undefined) | 12.6%
13 | COc1cc2oc3c(S(=O)(=O)NCc4ccc5ccccc5c4)c(OC)cc(OC)c3c(=O)c2cc1OC | 25%
14 | COc1cc2oc3c(S(=O)(=O)N4CCCCC4)c(OC)cc(OC)c3c(=O)c2cc1OC | 10.5%
15 | CNS(=O)(=O)c1c(OC)cc(OC)c2c(=O)c3cc(OC)c(OC)cc3oc12 | inactive
16 | COc1ccc(N2CCN(S(=O)(=O)c3c(OC)cc(OC)c4c(=O)c5cc(OC)c(OC)cc5oc34)CC2)cc1 | 36.9%
17 | CCCCCCCCCC[Si](C)(C)CCC(=O)NC(Cc1ccc(C)cc1)c1ccccc1 (centres undefined) | 55%
18 | COc1cc2oc3c(S(=O)(=O)NCc4cccc(Cl)c4)c(OC)cc(OC)c3c(=O)c2cc1OC | 15.8%
19 | COc1cc2oc3c(S(=O)(=O)NOCc4ccccc4)c(OC)cc(OC)c3c(=O)c2cc1OC | 16.8%
20 | COc1cc2oc3c(S(=O)(=O)N4CC=C(c5ccccc5)CC4)c(OC)cc(OC)c3c(=O)c2cc1OC | 51.3%
21 | COc1cc2oc3c(S(=O)(=O)N4C[C@@H](C)O[C@@H](C)C4)c(OC)cc(OC)c3c(=O)c2cc1OC | 8.84%
22 | CCOC(=O)C1CCCN(S(=O)(=O)c2c(OC)cc(OC)c3c(=O)c4cc(OC)c(OC)cc4oc23)C1 (centres undefined) | 7.99%
23 | COc1cc2oc3c(S(=O)(=O)NCc4ccc(F)cc4)c(OC)cc(OC)c3c(=O)c2cc1OC | 10.2%
24 | CCOC(=O)CN(C)S(=O)(=O)c1c(OC)cc(OC)c2c(=O)c3cc(OC)c(OC)cc3oc12 | 16.8%
